In patent US8691865B2 (AbbVie Inc., priority 2008, dated 2014):

Columns and labels:
Sprague Dawley rats [1] = assay: Capsaicin induced secondary mechanical hyperalgesia model; format: in vivo; details: po, 1 h, read-out: % inhibition @ 30 mg/kg p.o.; 30 mg/kg p.o. 60 minutes before testing; SMH measured 180 minutes after capsaicin; rat
Protocol: (ii) In Vivo Data—Capsaicin Induced Secondary Mechanical Hyperalgesia Model:
Sprague Dawley rats were briefly restrained, and capsaicin was administered at 10 μg in 10 μL of vehicle by intraplantar injection into the center of the right hind paw. Secondary mechanical hyperalgesia (SMH) was measured at the heel away from the site of injection 180 minutes following capsaicin exposure. Compounds and gabapentin (positive control), were administered p.o. 60 minutes before testing (2 hours after capsaicin) or i.p. 30 minutes before testing (2.5 hours after capsaicin). SMH was measured using calibrated von Frey filaments (Stoelting, Woodale, Ill.). Following the 1 hour habituation in the testing room, rats were moved to individual plexiglass chambers that sit on top of a wire mesh to allow for access for stimulation of the plantar surface of the hind paws. Rats were allowed to acclimate to the new chambers for 15 minutes before the onset of testing. The paw withdrawal threshold was determined by increasing and decreasing stimulus intensity (force: g) and calculated using Dixon's up-down method (Chaplan, S. R.; Bach, F. W.; Pogrel, J. W.; Chung, J. M.; Yaksh, T. L.; J. Neuroscience Methods 1994, 53(1), 55-63.). The filaments (maximum force of 15.0 g) were held in place for 8 seconds or until there was a withdrawal response from the mechanical stimulation.

human Cav2.2 = human Cav2.2 (Homo sapiens, UniProt Q00975); assay: Assessment of calcium channel activity using FLIPR (Ca2+ influx in IMR32 cells); format: cell-based
Chain of human Cav2.2 (Q00975 whole entry): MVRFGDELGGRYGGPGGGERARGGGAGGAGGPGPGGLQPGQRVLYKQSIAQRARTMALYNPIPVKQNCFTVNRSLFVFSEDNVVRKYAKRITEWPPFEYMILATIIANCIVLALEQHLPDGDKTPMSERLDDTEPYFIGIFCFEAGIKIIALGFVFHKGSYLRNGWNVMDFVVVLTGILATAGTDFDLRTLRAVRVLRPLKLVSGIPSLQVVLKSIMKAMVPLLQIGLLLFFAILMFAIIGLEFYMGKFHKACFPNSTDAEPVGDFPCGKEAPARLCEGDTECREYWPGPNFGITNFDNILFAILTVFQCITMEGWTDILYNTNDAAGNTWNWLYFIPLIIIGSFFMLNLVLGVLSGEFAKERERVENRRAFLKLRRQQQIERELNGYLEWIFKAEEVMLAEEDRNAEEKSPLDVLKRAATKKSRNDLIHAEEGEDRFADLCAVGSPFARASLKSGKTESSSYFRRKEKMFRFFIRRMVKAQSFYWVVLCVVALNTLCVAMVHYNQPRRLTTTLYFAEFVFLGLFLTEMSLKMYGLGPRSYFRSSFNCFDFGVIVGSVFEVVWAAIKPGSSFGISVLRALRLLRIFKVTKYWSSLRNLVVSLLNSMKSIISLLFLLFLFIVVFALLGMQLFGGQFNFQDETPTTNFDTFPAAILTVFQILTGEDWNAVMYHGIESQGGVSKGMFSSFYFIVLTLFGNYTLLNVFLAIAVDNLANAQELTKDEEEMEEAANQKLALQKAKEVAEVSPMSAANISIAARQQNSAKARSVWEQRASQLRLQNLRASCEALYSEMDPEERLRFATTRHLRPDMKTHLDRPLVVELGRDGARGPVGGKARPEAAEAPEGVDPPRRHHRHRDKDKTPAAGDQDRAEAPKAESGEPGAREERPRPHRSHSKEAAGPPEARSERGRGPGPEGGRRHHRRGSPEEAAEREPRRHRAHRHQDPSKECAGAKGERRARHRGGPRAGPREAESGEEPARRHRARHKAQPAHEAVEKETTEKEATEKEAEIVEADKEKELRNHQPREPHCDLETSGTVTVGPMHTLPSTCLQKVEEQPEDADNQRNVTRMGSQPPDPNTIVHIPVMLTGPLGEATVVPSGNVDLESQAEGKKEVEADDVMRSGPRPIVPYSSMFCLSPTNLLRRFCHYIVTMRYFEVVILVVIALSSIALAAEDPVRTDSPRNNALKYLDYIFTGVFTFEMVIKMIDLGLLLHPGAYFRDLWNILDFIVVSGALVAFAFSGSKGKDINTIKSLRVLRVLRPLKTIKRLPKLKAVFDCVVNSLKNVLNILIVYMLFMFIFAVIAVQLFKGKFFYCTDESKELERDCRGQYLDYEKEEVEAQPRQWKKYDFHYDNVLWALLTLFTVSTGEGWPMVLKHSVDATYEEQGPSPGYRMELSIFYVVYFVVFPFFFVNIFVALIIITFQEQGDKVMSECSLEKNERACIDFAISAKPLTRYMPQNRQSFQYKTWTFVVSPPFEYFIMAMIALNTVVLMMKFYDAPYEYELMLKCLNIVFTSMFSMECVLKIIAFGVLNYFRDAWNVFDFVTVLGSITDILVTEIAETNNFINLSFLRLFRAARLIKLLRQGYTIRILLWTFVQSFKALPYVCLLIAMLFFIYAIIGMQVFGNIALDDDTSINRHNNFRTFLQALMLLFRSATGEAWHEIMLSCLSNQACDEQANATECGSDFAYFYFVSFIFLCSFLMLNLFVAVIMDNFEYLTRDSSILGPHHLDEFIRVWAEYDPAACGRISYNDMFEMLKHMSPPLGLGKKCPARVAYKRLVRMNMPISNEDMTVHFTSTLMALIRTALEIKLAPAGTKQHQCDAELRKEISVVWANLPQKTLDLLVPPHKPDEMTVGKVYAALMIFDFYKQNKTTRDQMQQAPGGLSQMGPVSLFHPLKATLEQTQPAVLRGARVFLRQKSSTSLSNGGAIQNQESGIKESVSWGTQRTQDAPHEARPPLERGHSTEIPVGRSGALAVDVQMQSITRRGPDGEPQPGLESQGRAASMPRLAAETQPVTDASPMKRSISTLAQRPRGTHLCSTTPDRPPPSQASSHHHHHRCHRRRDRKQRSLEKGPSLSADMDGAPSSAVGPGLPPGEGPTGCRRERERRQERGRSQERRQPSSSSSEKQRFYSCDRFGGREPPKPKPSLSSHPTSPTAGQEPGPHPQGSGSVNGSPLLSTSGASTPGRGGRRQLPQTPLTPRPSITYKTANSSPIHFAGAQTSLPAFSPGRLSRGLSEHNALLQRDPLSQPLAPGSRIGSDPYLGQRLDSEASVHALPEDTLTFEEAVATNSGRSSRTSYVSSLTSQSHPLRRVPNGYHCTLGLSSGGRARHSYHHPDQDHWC
Chain of human Cav2.2 (P54289 25-956 partner limits assumed): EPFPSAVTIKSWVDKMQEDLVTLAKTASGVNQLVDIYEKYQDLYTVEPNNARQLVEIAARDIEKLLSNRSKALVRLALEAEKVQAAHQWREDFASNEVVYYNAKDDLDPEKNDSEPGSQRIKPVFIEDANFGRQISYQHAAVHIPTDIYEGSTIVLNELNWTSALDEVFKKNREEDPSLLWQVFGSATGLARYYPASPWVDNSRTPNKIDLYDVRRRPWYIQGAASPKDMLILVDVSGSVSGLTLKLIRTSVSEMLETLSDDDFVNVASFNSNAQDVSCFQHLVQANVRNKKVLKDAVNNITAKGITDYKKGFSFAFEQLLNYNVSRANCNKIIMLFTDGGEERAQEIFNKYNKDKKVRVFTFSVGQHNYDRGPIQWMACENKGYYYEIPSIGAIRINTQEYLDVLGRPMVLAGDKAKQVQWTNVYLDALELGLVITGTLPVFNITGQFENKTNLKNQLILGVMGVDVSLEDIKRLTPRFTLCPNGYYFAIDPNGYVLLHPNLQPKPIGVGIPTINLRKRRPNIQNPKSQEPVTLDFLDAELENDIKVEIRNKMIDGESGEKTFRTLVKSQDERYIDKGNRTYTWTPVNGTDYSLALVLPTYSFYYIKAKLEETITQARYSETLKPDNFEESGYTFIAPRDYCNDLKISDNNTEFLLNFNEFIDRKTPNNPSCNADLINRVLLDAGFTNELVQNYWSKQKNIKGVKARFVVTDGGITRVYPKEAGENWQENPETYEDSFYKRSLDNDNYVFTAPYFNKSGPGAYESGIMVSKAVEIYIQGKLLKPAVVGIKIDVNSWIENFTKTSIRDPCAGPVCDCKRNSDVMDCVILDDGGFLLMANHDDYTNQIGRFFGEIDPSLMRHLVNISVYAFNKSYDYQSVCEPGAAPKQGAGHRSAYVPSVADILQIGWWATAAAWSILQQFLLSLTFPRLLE
Chain of human Cav2.2 (P54289 957-1103 partner limits assumed): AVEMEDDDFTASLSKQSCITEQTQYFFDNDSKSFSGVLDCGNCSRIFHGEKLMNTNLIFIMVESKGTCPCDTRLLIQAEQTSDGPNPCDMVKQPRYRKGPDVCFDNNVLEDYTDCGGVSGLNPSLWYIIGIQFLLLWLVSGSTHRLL
Chain of human Cav2.2 (P54284 whole entry partner): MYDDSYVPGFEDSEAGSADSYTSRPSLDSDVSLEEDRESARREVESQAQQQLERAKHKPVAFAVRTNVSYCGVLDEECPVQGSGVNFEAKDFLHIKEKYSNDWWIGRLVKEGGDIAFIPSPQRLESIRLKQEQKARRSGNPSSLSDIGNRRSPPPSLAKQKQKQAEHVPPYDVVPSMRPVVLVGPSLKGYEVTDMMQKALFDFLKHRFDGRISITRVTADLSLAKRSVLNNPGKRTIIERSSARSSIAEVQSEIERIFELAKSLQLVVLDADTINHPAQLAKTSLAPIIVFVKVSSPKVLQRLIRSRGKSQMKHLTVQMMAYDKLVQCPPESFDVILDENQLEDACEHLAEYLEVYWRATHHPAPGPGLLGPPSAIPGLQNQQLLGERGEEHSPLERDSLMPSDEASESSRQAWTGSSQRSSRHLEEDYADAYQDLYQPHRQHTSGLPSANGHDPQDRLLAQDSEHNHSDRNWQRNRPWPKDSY
Method in brief: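 IC50 values derive from nonlinear sigmoidal fitting of percent inhibition, relative to inhibitor-free activity, of Ca2+ influx read by FLIPR. Cells were IMR32 human neuroblastoma, plated at 1−1.2×10^5 per well and grown 48 h at 37 °C.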

Sprague Dawley rats [2] = assay: Analgesic effect against neuropathic pain, Bennett model (chronic constriction injury); format: in vivo; details: Rattus norvegicus, 1 h; 30 mg/kg po; mechanical allodynia 60 minutes after administration; CCI rats; read-out: % MPE
Protocol: (iii) In Vivo Data—Determination of Analgesic Effect Against Neuropathic Pain—Bennett Model
Animals were prepared for testing, by use of a surgical procedure that induces neuropathic pain in one paw. IACUC guidelines for rodent survival surgery are followed. All surgical procedures are conducted on a clean, uncluttered surgical station. The area is wiped with a 70% ethanol solution before and after use. All instruments are sterilized by either autoclave or chemical sterilant (such as 2% glutaraldehyde >10 hr). Surgeons wear sterile gloves (for the initial procedure), clean lab coat or scrubs, hairnet or cap, and a half-mask respirator (when not working under a hood). Surgeons thoroughly wash their hands prior to donning sterile gloves. Gloves are disinfected in-between animals by cleansing with povidone iodine, chlorhexidine or 70% alcohol for at least 30 seconds. If multiple surgeries are performed, the instruments are cleaned and sterilized between procedures with hot glass beads (>10 seconds). To prevent thermal or chemical burns, the instruments are cooled by rinsing in sterile saline before use.
To minimize post-operative dehydration/maintain blood volume during the surgery, warmed sterile saline or Lactate Ringers solution at 10-15 mL/kg is administered subcutaneously immediately before or after surgery. This facilitates better renal function and presumably anesthesia product excretion post surgery. For all surgical procedures, anesthesia is induced with 4-5% isoflurane. Anesthesia is be maintained during surgery with 1-3% isoflurane. Following induction, the surgical site is carefully shaved and the exposed area is aseptically prepared with povidone-iodine scrub solution and 70% ethanol 2-3 times.
After site sterilization and anesthetic procedures outline above are completed, a 1.5 cm incision is made at the mid-thigh level to expose the biceps femoris and gluteous superficialis (right side), which are then separated by blunt dissection. The common sciatic nerve is exposed, isolated, and loosely ligated by four 5-0 chromic gut ligatures with <1 mm spacing between each. The surgical site is closed in layers—muscle is closed with 6.0 absorbable sutures, and the skin closed with wound clips. Animals are allowed to recover on a warming plate and are returned to their home cages when fully ambulatory. Animals are not be used for testing until at least 10 days following surgery.
Filament strengths used are: 0.4, 0.6, 1.0, 2, 4, 6, 8, and 15 g. […] Filaments are applied perpendicular to the mid-plantar paw surface with enough force to cause slight buckling and held in place for 6-8 seconds. Positive responses include an abrupt withdrawal of the paw from the stimulus or flinching behavior immediately following removal of the stimulus. The maximum force applied will be 15 g. […] All compounds were orally administered in 10% dimethyl sulfoxide/polyethylene glycol at a volume of 2.0 mL/kg, and mechanical allodynia was determined 60 minutes following compound administration. Data are reported as log g values and the percentage of maximum possible effect (% MPE) is calculated using log g values with the formula: % MPE=(log [observed PWT in grams]−log [mean PWT vehicle])/(log [15]−log [mean PWT vehicle])*100 All statistical procedures are run on log g values.

Row | SMILES | inhibition in vivo at 30 mg/kg (Sprague Dawley rats [1]) [%] | IC50 (human Cav2.2) [nM] | inhibition in vivo at 30 mg/kg (Sprague Dawley rats [2]) [%]
1 | CN[C@@H](CC(C)(C)C)C(=O)N[C@H]1CC[C@@H]2CN(c3cccc(C(F)(F)F)n3)C[C@@H]21 [Example 587, N^2,4-dimethyl-N-{(3aR,4S,6aS)-2-[6-(trifluoromethyl)pyridin-2-yl]octahydrocyclopenta[c]pyrrol-4-yl}-L-leucinamide] | 16 | 390 | 
2 | CN[C@@H](CC(C)C)C(=O)N[C@H]1CC[C@@H]2CN(c3cccc(OC(F)(F)F)c3)C[C@@H]21 [Example 625, N^2-methyl-N-{(3aR,4S,6aS)-2-[3-(trifluoromethoxy)phenyl]octahydrocyclopenta[c]pyrrol-4-yl}-L-leucinamide] |  | 1420 | 42
3 | CN[C@@H](CC(C)C)C(=O)N[C@H]1CC[C@@H]2CN(c3ccc(C(F)(F)F)nc3)C[C@@H]21 [Example 735, N^2-methyl-N-{(3aR,4S,6aS)-2-[6-(trifluoromethyl)pyridin-3-yl]octahydrocyclopenta[c]pyrrol-4-yl}-L-leucinamide] |  | 3620 | 60
4 | CN[C@@H](CC(C)C)C(=O)N[C@H]1CC[C@@H]2CN(c3ccc(C(F)(F)F)cc3)C[C@@H]21 [Example 608, N^2-methyl-N-{(3aR,4S,6aS)-2-[4-(trifluoromethyl)phenyl]octahydrocyclopenta[c]pyrrol-4-yl}-L-leucinamide] |  | 1650 | 79
5 | O=C(N[C@H]1CC[C@@H]2CN(c3cccc(OC(F)(F)F)c3)C[C@@H]21)[C@@H]1C[C@@H](F)CN1 [Example 627, (4R)-4-fluoro-N-{(3aR,4S,6aS)-2-[3-(trifluoromethoxy)phenyl]octahydrocyclopenta[c]pyrrol-4-yl}-L-prolinamide] |  | 2710 | 54
6 | CN[C@@H](CC(C)C)C(=O)N[C@H]1CC[C@@H]2CN(c3nccc(C(F)(F)F)n3)C[C@@H]21 [Example 722, N^2-methyl-N-{(3aR,4S,6aS)-2-[4-(trifluoromethyl)pyrimidin-2-yl]octahydrocyclopenta[c]pyrrol-4-yl}-L-leucinamide] |  | 2530 | 8
7 | O=C(N[C@H]1CC[C@@H]2CN(c3cccc(C(F)(F)F)n3)C[C@@H]21)[C@@H]1CCCN1 [Example 598, N-{(3aR,4S,6aS)-2-[6-(trifluoromethyl)pyridin-2-yl]octahydrocyclopenta[c]pyrrol-4-yl}-L-prolinamide] | 54 | 2570 | 
8 | CCC[C@H](NC)C(=O)N[C@H]1CC[C@@H]2CN(c3ccc(C(F)(F)F)cn3)C[C@@H]21 [Example 599, N^2-methyl-N-{(3aR,4S,6aS)-2-[5-(trifluoromethyl)pyridin-2-yl]octahydrocyclopenta[c]pyrrol-4-yl}-L-norvalinamide] | 32 | 4430 | 
9 | CN[C@@H](CC(C)C)C(=O)N[C@H]1CC[C@@H]2CN(c3cccc(C(F)F)c3)C[C@@H]21 [Example 729, N-{(3aR,4S,6aS)-2-[3-(difluoromethyl)phenyl]octahydrocyclopenta[c]pyrrol-4-yl}-N^2-methyl-L-leucinamide] |  | 1080 | 85
10 | CN[C@@H](CC(C)C)C(=O)N[C@H]1CC[C@@H]2CN(c3ccc(OC(F)(F)F)cc3)C[C@@H]21 [Example 624, N^2-methyl-N-{(3aR,4S,6aS)-2-[4-(trifluoromethoxy)phenyl]octahydrocyclopenta[c]pyrrol-4-yl}-L-leucinamide] |  | 4910 | 85
11 | O=C(N[C@H]1CC[C@@H]2CN(c3cccc(C(F)(F)F)n3)C[C@@H]21)[C@@H]1CCCCN1 [Example 597, (2S)-N-{(3aR,4S,6aS)-2-[6-(trifluoromethyl)pyridin-2-yl]octahydrocyclopenta[c]pyrrol-4-yl}piperidine-2-carboxamide] | 54 | 1300 | 
12 | CCC[C@H](NC)C(=O)N[C@H]1CC[C@@H]2CN(c3cccc(OC(F)(F)F)c3)C[C@@H]21 [Example 718, N^2-methyl-N-{(3aR,4S,6aS)-2-[3-(trifluoromethoxy)phenyl]octahydrocyclopenta[c]pyrrol-4-yl}-L-norvalinamide] |  | 1300 | 29
13 | O=C(N[C@H]1CC[C@@H]2CN(c3cccc(C(F)(F)F)n3)C[C@@H]21)C1(O)CCCC1 [Example 573, 1-hydroxy-N-{(3aR,4S,6aS)-2-[6-(trifluoromethyl)pyridin-2-yl]octahydrocyclopenta[c]pyrrol-4-yl}cyclopentanecarboxamide] | 57 | 1680 | 
14 | Fc1ccc2[nH]c(CN[C@H]3CC[C@@H]4CN(c5cccc(C(F)(F)F)n5)C[C@@H]43)cc2c1 [Example 613, (3aR,4S,6aS)-N-[(5-fluoro-1H-indol-2-yl)methyl]-2-[6-(trifluoromethyl)pyridin-2-yl]octahydrocyclopenta[c]pyrrol-4-amine] |  | 910 | 61
15 | CN[C@@H](CC(C)(C)C)C(=O)N1C[C@H]2CC[C@H](NC(=O)C(c3ccc(F)cc3)c3ccc(F)cc3)[C@H]2C1 [Example 461, N-[(3aR,4S,6aS)-2-(N,4-dimethyl-L-leucyl)octahydrocyclopenta[c]pyrrol-4-yl]-2,2-bis(4-fluorophenyl)acetamide] | 43 | 1460 | 
16 | O=C(N[C@H]1CC[C@@H]2CN(c3cccc(C(F)(F)F)n3)C[C@@H]21)[C@@H]1C[C@@H](F)CN1 [Example 592, (4R)-4-fluoro-N-{(3aR,4S,6aS)-2-[6-(trifluoromethyl)pyridin-2-yl]octahydrocyclopenta[c]pyrrol-4-yl}-L-prolinamide] | 54 | 4500 | 
17 | CC(C)(C)[C@H](O)C(=O)N[C@H]1CC[C@@H]2CN(c3cccc(C(F)(F)F)n3)C[C@@H]21 [Example 580, (2S)-2-hydroxy-3,3-dimethyl-N-{(3aR,4S,6aS)-2-[6-(trifluoromethyl)pyridin-2-yl]octahydrocyclopenta[c]pyrrol-4-yl}butanamide] |  | 1880 | 5
18 | O=C(N[C@H]1CC[C@@H]2CN(c3cccc(C(F)(F)F)n3)C[C@@H]21)[C@@H]1C[C@@H]2CCCC[C@@H]2N1 [Example 593, (2S,3aS,7aS)-N-{(3aR,4S,6aS)-2-[6-(trifluoromethyl)pyridin-2-yl]octahydrocyclopenta[c]pyrrol-4-yl}octahydro-1H-indole-2-carboxamide] | 76 | 520 | 
19 | CN[C@@H](CC(C)C)C(=O)N[C@H]1CC[C@@H]2CN(c3ccc(C(F)(F)F)cn3)C[C@@H]21 [Example 600, N^2-methyl-N-{(3aR,4S,6aS)-2-[5-(trifluoromethyl)pyridin-2-yl]octahydrocyclopenta[c]pyrrol-4-yl}-L-leucinamide] | 63 | 2860 | 40
20 | CN[C@@H](CC(C)C)C(=O)N[C@@H]1CC[C@H]2CN(c3ccc(OC(F)(F)F)cc3)C[C@H]21 [Example 739, N^2-methyl-N-{(3aS,4R,6aR)-2-[4-(trifluoromethoxy)phenyl]octahydrocyclopenta[c]pyrrol-4-yl}-L-leucinamide] |  | 2850 | 63
